Data set [1] is described as follows: Compound stability in human liver microsomes. It counts as in vitro ADME. Conditions: for half-life: pH 7.4, 0.5 mg protein/mL; for half-life / T1/2: NADPH, 37° C.; for CLint scaled: pH 7.4, in vivo CLint extrapolated; for T1/2: 0.5 mg protein/mL. The protocol:
Human or rat liver microsomes incubations were conducted in duplicate in polypropylene tubes. The typical incubation mixtures consisted of human or rat liver microsomes (0.5 mg protein/mL), compounds of interest (5 μM) and NADPH (1.0 mM) in a total volume of 200 μL potassium phosphate buffer (PBS, 100 mM, pH 7.4). Compounds were dissolved in DMSO and diluted with PBS such that the final concentration of DMSO was 0.05%. The enzymatic reactions were commenced with the addition of protein after a 3-min preincubation and incubated in a water bath open to the air at 37° C. Reactions were terminated at various time points (0, 5, 10, 15, 30, 60 min) by adding equal volume of ice-cold acetonitrile. The samples were stored at −80° C. until LC/MS/MS assays.
The concentrations of compounds in the incubation mixtures of human or rat liver microsomes were determined by a LC/MS/MS method. The ranges of the linearity in the concentration range were determined for each tested compounds.
A parallel incubation was performed using denatured microsomes as the negative control, and reactions were terminated at various time points (0, 15, 60 min) after incubation at 37° C.
Dextromethorphan (70 μM) was selected as the positive control, and reactions were terminated at various time points (0, 5, 10, 15, 30, 60 min) after incubation at 37° C. Both positive and negative control samples were included in each assay to ensure the integrity of the microsomal incubation system.
Alternatively, the stability of some of the compounds disclosed herein in human (or rat) liver microsomes were also conducted in the following protocol. The incubations were conducted in duplicate in polypropylene tubes. The typical incubation mixtures consisted of liver microsomes (final concentration: 0.5 mg protein/mL), compounds (final concentration: 1.5 μM) in a total volume of 30 μL K-buffer (contain 1.0 mM EDTA, 100 mM, pH7.4). Compounds were dissolved in DMSO and diluted with K-buffer such that the final concentration of DMSO was 0.2%. The enzymatic reactions were commenced with the addition of 15 μL of NADPH (final concentration: 2 mM) after 10 min preincubation and incubated in a 37° C. incubator. Reactions were terminated at various time points (0, 15, 30, 60 min) by adding 135 μL acetonitrile (contain IS). Protein is removed by centrifugation with 4000 rpm, 10 min. Supernatant was collected for LCMS/MS analysis
In the above protocol, ketanserin (1 μM) was selected as the positive control, and reactions were terminated at various time points (0, 15, 30, 60 min) after incubation at 37° C. The positive control sample was included in each assay to ensure the integrity of the microsomal incubation system.
The concentrations of compounds in human or rat liver microsome incubations were plotted as a percentage of the relevant zero time point control for each reaction. The in vivo CLint were extrapolated (ref: Naritomi, Y.; Terashita, S.; Kimura, S.; Suzuki, A.; Kagayama, A.; and Sugiyama, Y.; Prediction of human hepatic clearance from in vivo animal experiments and in vitro metabolic studies with liver microsomes from animals and humans. Drug Metab. Dispos., 2001, 29: 1316-1324).

For another data set, the target named is T1, Mer (h) (Homo sapiens, UniProt Q12866).
T1 construct: purchased Millipore UK Ltd
T1 sequence (Q12866 21-999): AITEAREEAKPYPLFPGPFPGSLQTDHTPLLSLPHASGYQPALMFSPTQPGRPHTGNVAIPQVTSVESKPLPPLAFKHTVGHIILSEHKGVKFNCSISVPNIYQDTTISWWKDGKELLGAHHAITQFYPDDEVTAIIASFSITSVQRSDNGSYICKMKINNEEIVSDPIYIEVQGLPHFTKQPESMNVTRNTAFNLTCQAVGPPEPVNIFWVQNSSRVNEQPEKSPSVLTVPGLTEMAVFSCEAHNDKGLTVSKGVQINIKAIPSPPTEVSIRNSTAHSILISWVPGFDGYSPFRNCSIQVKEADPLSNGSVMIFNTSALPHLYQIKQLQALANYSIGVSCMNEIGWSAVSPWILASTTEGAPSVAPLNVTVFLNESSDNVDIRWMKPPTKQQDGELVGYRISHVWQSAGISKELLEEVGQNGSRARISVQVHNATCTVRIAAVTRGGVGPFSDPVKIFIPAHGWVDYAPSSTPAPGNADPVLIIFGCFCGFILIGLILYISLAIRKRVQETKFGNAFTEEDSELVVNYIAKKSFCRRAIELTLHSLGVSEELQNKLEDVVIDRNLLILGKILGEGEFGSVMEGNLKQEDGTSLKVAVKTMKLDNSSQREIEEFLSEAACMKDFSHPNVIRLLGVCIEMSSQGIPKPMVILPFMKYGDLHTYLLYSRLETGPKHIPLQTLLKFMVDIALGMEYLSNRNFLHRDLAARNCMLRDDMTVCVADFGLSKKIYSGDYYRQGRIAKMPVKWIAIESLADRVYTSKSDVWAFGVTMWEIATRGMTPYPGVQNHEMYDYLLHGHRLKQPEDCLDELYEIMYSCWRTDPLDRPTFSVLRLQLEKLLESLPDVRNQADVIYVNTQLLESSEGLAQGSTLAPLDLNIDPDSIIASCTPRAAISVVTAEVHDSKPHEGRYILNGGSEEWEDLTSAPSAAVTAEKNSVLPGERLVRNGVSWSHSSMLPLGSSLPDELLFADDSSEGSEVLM
Description: Mer (h) kinase assay. The format is biochemical. Here is the method: The above assay procedure can be used to determine the IC50 for inhibition and/or the inhibition constant, Ki. The IC50 is defined as the concentration of compound required to reduce the enzyme activity by 50% under the condition of the assay. The IC50 value is estimated by preparing a 10 point curve using a 1/2 log dilution series (for example, a typical curve may be prepared using the following compound concentrations: 10 μM, 3 μM, 1 μM, 0.3 μM, 0.1 μM, 0.03 μM, 0.01 μM, 0.003 μM, 0.001 μM and 0 μM).
Mer (h) is incubated with 8 mM MOPS pH 7.0, 0.2 mM EDTA, 30 mM NaCl, 250 μM GGMEDIYFEFMGGKKK, 10 mM MgAcetate and [γ-^33P-ATP] (specific activity approx. 500 cpm/pmol, concentration as required). The reaction is initiated by the addition of the MgATP mix. After incubation for 40 minutes at room temperature, the reaction is stopped by the addition of 3% phosphoric acid solution. 10 μL of the reaction is then spotted onto a P30 filtermat and washed three times for 5 minutes in 75 mM phosphoric acid and once in methanol prior to drying and scintillation counting.
The kinase assays described herein were performed at Millipore UK Ltd, Dundee Technology Park, Dundee DD2 1SW, UK.

`O=C(Nc1ccc(Oc2ccnc(NC(=O)C3CC3)c2)cc1)c1c2n(n(-c3ccccc3)c1=O)CCC2` [Ex. 2, N-(4-((2-(cyclopropanecarboxamido)pyridin-4-yl)oxy)phenyl)-2-oxo-1-phenyl-2,4,5,6-tetrahydro-1H-pyrrolo[1,2-b]pyrazole-3-carboxamide]: in data set [1], the half-life was found to be 4.07 h and the intrinsic clearance (CLint scaled) is 7.13 mL/min/kg. The compound also returned a half-maximal inhibitory concentration (IC50) on Mer (h) of 3 nM.

Turning to `CC(=O)Nc1cc(Oc2ccc(NC(=O)c3c4n(n(-c5ccccc5)c3=O)CCC4)cc2)ccn1` [Ex. 3, N-(4-((2-acetamidopyridin-4-yl)oxy)phenyl)-2-oxo-1-phenyl-2,4,5,6-tetrahydro-1H-pyrrolo[1,2-b]pyrazole-3-carboxamide], in data set [1], the half-life stood at 32.2 h and the CLint scaled was 0.9 mL/min/kg. 35 nM corresponded to half-maximal inhibition against Mer (h) (IC50).

With `CC(=O)Nc1cc(Oc2ccc(NC(=O)c3c4n(n(-c5ccccc5)c3=O)CCOC4)nc2)ccn1` [Ex. 12, N-(5-((2-acetamidopyridin-4-yl)oxy)pyridin-2-yl)-2-oxo-1-phenyl-2,4,6,7-tetrahydro-1H-pyrazolo[5,1-c][1,4]oxazine-3-carboxamide], in data set [1], the T1/2 entry is “∞”. The compound also returned a concentration for half-maximal inhibition (IC50) against Mer (h) of 74 nM.

On to `O=C(Nc1ccc(Oc2ccnc(NC(=O)C3CC3)c2)cn1)c1c2n(n(-c3ccccc3)c1=O)CCC2` [Ex. 14, N-(5-((2-(cyclopropanecarboxamido)pyridin-4-yl)oxy)pyridin-2-yl)-2-oxo-1-phenyl-2,4,5,6-tetrahydro-1H-pyrrolo[1,2-b]pyrazole-3-carboxamide], for which, in data set [1], the half-life stood at 8.47 h and the CLint scaled is 3.42 mL/min/kg. Moreover, at Mer (h), it took 8 nM to reach half-maximal inhibition (IC50).

With `O=C(Nc1ccc(Oc2ccnc(NC(=O)C3CC3)c2)cc1)c1c2n(n(-c3ccccc3)c1=O)CCOC2` [Ex. 19, N-(4-((2-(cyclopropanecarboxamido)pyridin-4-yl)oxy)phenyl)-2-oxo-1-phenyl-2,4,6,7-tetrahydro-1H-pyrazolo[5,1-c][1,4]oxazine-3-carboxamide], the T1/2 entry in data set [1] is “∞”. Moreover, the 50% inhibitory concentration (IC50) at Mer (h) worked out at 5 nM.

As usually defined, the half-life is how long it takes for the measured level to halve. Low values mean fast loss, high ones slow loss. The CLint scaled is a measure of how fast metabolising enzymes remove a compound, apart from limits set by blood flow. A word on the IC50: it is the concentration that inhibits the measured activity by half.
